Like-named read-outs stand apart in the source and are kept apart here. Positions of bridges follow the written chain, without caps; N, C: chain ends. Residues, ends and D or L forms follow the SMILES beside them.
System: blood stages of P. falciparum
Type: cell-based, Plasmodium falciparum
Conditions: 48 h, starting parasitemia 0.5%, haematocrit 1%, SYBR Green I flow cytometry
Protocol: The growth inhibition assay was described in detail in [Fréville et al. (2013)]. Briefly, assays were carried out in 96-well plates with a starting parasitemia of 0.5% at a haematocrit of 1% using SYBR Green I ([Kelly et al., 2009]). The peptides were added to the culture at different concentrations ranging from 6.25 μM to 50 μM (final concentrations) in a volume of 250 μl of RPMI-AlbuMAX (0.5%) and incubated for an additional 48 h to allow all stages to complete one cycle. Cultures were stained for 30 min in the dark with SYBR Green I 1X (Invitrogen) diluted in 20 mM Tris pH8.8, 138 mM NaCl, and fixed with 1% paraformaldehyde. Fixed parasited red blood cells (RBC) were stored at 4°C in the dark until flow cytometry analysis. Parasite growth was assessed by flow cytometry on a BD FACSCantoII (BD Biosciences). Cell pairs were excluded from the analysis using a forward scatter (FSC)-width versus FSC-area dot plot. […] Fluorescence analysis (Green fluorescence) was performed using BD FACSDiva software (version 6.1.3, BD Biosciences) on a total of 200,000 acquired events. Fluorescence was observed as described by [Izumiyama et al. (2009)] on a two-parameter dot plot (Green fluoresecence-FSC). Fluorescence of non-infected RBC was adjusted to plot between […]. Results are expressed as the percentage of growth inhibition. […]

Q: How did the “P. falciparum growth inhibition” value (6.25 μM peptide) turn out when `CC[C@H](C)[C@H](NC(=O)[C@@H]1CSSC[C@@H]2NC(=O)[C@H](Cc3c[nH]cn3)NC(=O)[C@H](CCCNC(=N)N)NC(=O)[C@H](CC(=O)O)NC(=O)[C@@H]3CSSC[C@H](NC(=O)[C@H]([C@@H](C)O)NC(=O)[C@H](CC(C)C)NC(=O)[C@H](CCCCN)NC(=O)[C@H](Cc4c[nH]c5ccccc45)NC(=O)[C@H](CCCNC(=N)N)NC(=O)CNC(=O)CNC(=O)[C@H](CSSC[C@H](NC(=O)[C@H](Cc4ccccc4)NC(=O)[C@H](Cc4ccccc4)NC(=O)CN)C(=O)N4CCC[C@H]4C(=O)N[C@@H](Cc4ccc(O)cc4)C(=O)N[C@@H](CC(N)=O)C(=O)NCC(=O)N[C@@H](Cc4ccc(O)cc4)C(=O)N3)NC(=O)[C@H](Cc3ccc(O)cc3)NC(=O)CNC(=O)CNC(=O)[C@H](CCCNC(=N)N)NC(=O)[C@H](CCCNC(=N)N)NC(=O)[C@H](CCCNC(=N)N)NC(=O)[C@H](CC(C)C)NC(=O)[C@H](CCCCN)NC(=O)[C@H](CCCCN)NC(=O)[C@H](CCCNC(=N)N)NC2=O)C(=O)N[C@@H]([C@@H](C)CC)C(=O)N1)C(=O)N[C@@H](CCSC)C(=O)N[C@@H](CC(N)=O)C(=O)O` [DefMT5] (H-GFFCPYNGYCDRHCRKKLRRRGGYCGGRWKLTCICIMN-OH; disulfide 4-25, 10-33, 14-35; N-terminus assumed) was run?
A: 20%

Q: What about the “P. falciparum growth inhibition” value (50 μM peptide (highest concentration tested)) of the same compound?
A: ~100%

From publication PMC5075766, “Antiplasmodial Activity Is an Ancient and Conserved Feature of Tick Defensins” (Frontiers in Microbiology, 2016)
